Measured values from US10323022B2, “Pyrrolidinyl urea, pyrrolidinyl thiourea and pyrrolidinyl guanidine compounds as TrkA kinase inhibitors” (Array BioPharma Inc., priority 2011, dated 2019).

The compounds below were run against TrkA (Homo sapiens (Human), UniProt P04629) (assay: TrkA Omnia Assay). Details: averaged IC50; 20 nM enzyme, 500 μM ATP, 10 μM peptide substrate.
Format: biochemical
Procedure: Trk enzymatic selectivity was assessed using Omnia™ Kinase Assay reagents from Invitrogen Corp. Enzyme (TrkA from Invitrogen Corp.) and test compound (various concentrations) were incubated for 10 minutes at ambient temperature in a 384-well white polypropylene plate (Nunc catalog#267462). Omnia Tyr Peptide #4, as well as ATP, were then added to the plate. Final concentrations were as follows: 20 nM enzyme, 500 μM of ATP, 10 μM peptide substrate. The assay buffer consisted of 25 mM MOPS pH 7.5, 0.005% (v/v) Triton X-100 and 5 mM MgCl2. The production of phosphorylated peptide was monitored continuously for 70 minutes using a Molecular Devices FlexStation II^384 microplate reader (excitation=360 nm; emission=485 nm). Initial rates were calculated from the progress curves. IC50 values were calculated from these rates using either a 4 or 5-parameter logistic curve fit.

TrkA, sequence (P04629 33-796): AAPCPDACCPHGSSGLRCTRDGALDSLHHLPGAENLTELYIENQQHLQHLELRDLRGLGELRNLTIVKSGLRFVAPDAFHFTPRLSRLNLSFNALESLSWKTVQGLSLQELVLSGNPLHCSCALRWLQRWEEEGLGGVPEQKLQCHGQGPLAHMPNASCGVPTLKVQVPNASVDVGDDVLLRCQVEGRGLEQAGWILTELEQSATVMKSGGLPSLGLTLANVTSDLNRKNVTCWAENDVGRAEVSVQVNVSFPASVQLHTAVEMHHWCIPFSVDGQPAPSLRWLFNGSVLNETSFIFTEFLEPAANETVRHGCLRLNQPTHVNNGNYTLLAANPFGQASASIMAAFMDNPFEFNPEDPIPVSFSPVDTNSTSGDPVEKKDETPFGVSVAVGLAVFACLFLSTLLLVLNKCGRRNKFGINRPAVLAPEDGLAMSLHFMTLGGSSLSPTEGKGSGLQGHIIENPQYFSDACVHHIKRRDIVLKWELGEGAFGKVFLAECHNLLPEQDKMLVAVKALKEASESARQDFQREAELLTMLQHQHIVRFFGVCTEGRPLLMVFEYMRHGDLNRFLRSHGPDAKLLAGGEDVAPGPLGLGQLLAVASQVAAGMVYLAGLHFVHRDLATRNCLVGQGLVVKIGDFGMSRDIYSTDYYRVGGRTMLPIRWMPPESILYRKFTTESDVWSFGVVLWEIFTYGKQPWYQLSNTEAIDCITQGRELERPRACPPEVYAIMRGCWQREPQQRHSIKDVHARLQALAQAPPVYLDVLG

`COc1cccc([C@@H]2CN(CC(F)(F)F)C[C@H]2NC(=O)Nc2c3c(nn2-c2ccccc2)CCC3)c1` (relative stereo) [Example 207, 1-((trans)-4-(3-methoxyphenyl)-1-(2,2,2-trifluoroethyl)pyrrolidin-3-yl)-3-(2-phenyl-2,4,5,6-tetrahydrocyclopenta[c]pyrazol-3-yl)urea] and `O=C(Nc1c2c(nn1-c1ccccc1)CCC2)N[C@@H]1CN(CC(F)(F)F)C[C@H]1c1cccc(Cl)c1` (relative stereo) [Example 208, 1-((trans)-4-(3-chlorophenyl)-1-(2,2,2-trifluoroethyl)pyrrolidin-3-yl)-3-(2-phenyl-2,4,5,6-tetrahydrocyclopenta[c]pyrazol-3-yl)urea] fall in the same range of IC50: 100 to 1000 nM for the first, 100 to 1000 nM for the second.

First: O=C(Nc1c2c(nn1-c1ccccc1)CCC2)N[C@@H]1CN(CC(F)(F)F)C[C@H]1c1ccccn1 (relative stereo) [Example 209, 1-(2-phenyl-2,4,5,6-tetrahydrocyclopenta[c]pyrazol-3-yl)-3-((trans)-4-(pyridin-2-yl)-1-(2,2,2-trifluoroethyl)pyrrolidin-3-yl)urea]
Second: O=C(Nc1c2c(nn1-c1ccccc1)CCC2)N[C@@H]1CN(CC(F)(F)F)C[C@H]1c1ccccc1Cl (relative stereo) [Example 212, 1-((trans)-4-(2-chlorophenyl)-1-(2,2,2-trifluoroethyl)pyrrolidin-3-yl)-3-(2-phenyl-2,4,5,6-tetrahydrocyclopenta[c]pyrazol-3-yl)urea]
The IC50 of the first is lower: 100 to 1000 nM for the first, 1000 to 10000 nM for the second. The first is the more potent here.

`O=C(Nc1c2c(nn1-c1ccccc1)CCC2)N[C@@H]1CN(CC(F)(F)F)C[C@H]1c1ccc(F)cc1` (relative stereo) [Example 210, 1-((trans)-4-(4-fluorophenyl)-1-(2,2,2-trifluoroethyl)pyrrolidin-3-yl)-3-(2-phenyl-2,4,5,6-tetrahydrocyclopenta[c]pyrazol-3-yl)urea] and `O=C(Nc1c2c(nn1-c1ccccc1)CCC2)N[C@@H]1CN(CC(F)(F)F)C[C@H]1c1ccc(Cl)cc1` (relative stereo) [Example 211, 1-((trans)-4-(4-chlorophenyl)-1-(2,2,2-trifluoroethyl)pyrrolidin-3-yl)-3-(2-phenyl-2,4,5,6-tetrahydrocyclopenta[c]pyrazol-3-yl)urea] cannot be ordered by IC50: < 100 nM for the first, < 100 nM for the second.

First: O=C(Nc1c2c(nn1-c1ccccc1)CCC2)N[C@@H]1CN(CC(F)(F)F)C[C@H]1c1ccccc1F (relative stereo) [Example 214, 1-((trans)-4-(2-fluorophenyl)-1-(2,2,2-trifluoroethyl)pyrrolidin-3-yl)-3-(2-phenyl-2,4,5,6-tetrahydrocyclopenta[c]pyrazol-3-yl)urea]
Second: O=C(Nc1c2c(nn1-c1ccccc1)CCC2)N[C@@H]1CN(Cc2ncc[nH]2)C[C@H]1c1ccccc1 (relative stereo) [Example 257, 1-((trans)-1-((1H-imidazol-2-yl)methyl)-4-phenylpyrrolidin-3-yl)-3-(2-phenyl-2,4,5,6-tetrahydrocyclopenta[c]pyrazol-3-yl)urea]
The IC50 of the first is lower: < 100 nM for the first, 100 to 1000 nM for the second.

`CNCCN1C[C@@H](NC(=O)Nc2c3c(nn2-c2ccccc2)CCC3)[C@H](c2ccc(F)cc2)C1` (relative stereo) [Example 256, 1-((trans)-4-(4-fluorophenyl)-1-(2-(methylamino)ethyl)pyrrolidin-3-yl)-3-(2-phenyl-2,4,5,6-tetrahydrocyclopenta[c]pyrazol-3-yl)urea] and `COCCN1C[C@@H](NC(=O)Nc2c3c(nn2-c2ccccc2)CCC3)[C@H](c2cncc(F)c2)C1` (relative stereo) [Example 341, 1-(trans-4-(5-fluoropyridin-3-yl)-1-(2-methoxyethyl)pyrrolidin-3-yl)-3-(2-phenyl-2,4,5,6-tetrahydrocyclopenta[c]pyrazol-3-yl)urea] fall in the same range of IC50: 100 to 1000 nM for the first, 100 to 1000 nM for the second.

`COCCN1C[C@@H](NC(=O)Nc2c(C)c(-c3cnn(C)c3)nn2-c2ccccc2)[C@H](c2ccc(F)c(Cl)c2)C1` (relative stereo) [Example 293, 1-(trans-4-(3-chloro-4-fluorophenyl)-1-(2-methoxyethyl)pyrrolidin-3-yl)-3-(1′,4-dimethyl-1-phenyl-1H,1′H-[3,4′-bipyrazol]-5-yl)urea] and `COCCN1C[C@@H](NC(=O)Nc2c(C)c(-c3cnn(C)c3)nn2-c2ccccc2)[C@H](c2ccc(Cl)c(F)c2)C1` (relative stereo) [Example 294, 1-(trans-4-(4-chloro-3-fluorophenyl)-1-(2-methoxyethyl)pyrrolidin-3-yl)-3-(1′,4-dimethyl-1-phenyl-1H,1′H-[3,4′-bipyrazol]-5-yl)urea] cannot be ordered by IC50: < 100 nM for the first, < 100 nM for the second.

`COCCN1C[C@@H](NC(=O)Nc2c(C)c(-c3cnn(C)c3)nn2-c2ccccc2)[C@H](c2cc(F)cc(Cl)c2)C1` (relative stereo) [Example 295, 1-(trans-4-(3-chloro-5-fluorophenyl)-1-(2-methoxyethyl)pyrrolidin-3-yl)-3-(1′,4-dimethyl-1-phenyl-1H,1′H-[3,4′-bipyrazol]-5-yl)urea] and `COCCN1C[C@@H](NC(=O)Nc2c(C)c(-c3cnn(C)c3)nn2-c2ccccc2)[C@H](c2cccc(Cl)c2)C1` (relative stereo) [Example 296, 1-(trans-4-(3-chlorophenyl)-1-(2-methoxyethyl)pyrrolidin-3-yl)-3-(1′,4-dimethyl-1-phenyl-1H,1′H-[3,4′-bipyrazol]-5-yl)urea] cannot be ordered by IC50: < 100 nM for the first, < 100 nM for the second.

`CNC(=O)c1nn(-c2ccccc2)c(NC(=O)N[C@@H]2CN(CCOC)C[C@H]2c2ccc(F)c(Cl)c2)c1C` (relative stereo) [Example 301, 5-(3-(trans-4-(3-chloro-4-fluorophenyl)-1-(2-methoxyethyl)pyrrolidin-3-yl)ureido)-N,4-dimethyl-1-phenyl-1H-pyrazole-3-carboxamide] and `CNC(=O)c1nn(-c2ccccc2)c(NC(=O)N[C@@H]2CN(CCOC)C[C@H]2c2ccc(Cl)c(F)c2)c1C` (relative stereo) [Example 302, 5-(3-(trans-4-(4-chloro-3-fluorophenyl)-1-(2-methoxyethyl)pyrrolidin-3-yl)ureido)-N,4-dimethyl-1-phenyl-1H-pyrazole-3-carboxamide] cannot be ordered by IC50: < 100 nM for the first, < 100 nM for the second.

`COCCN1C[C@@H](NC(=O)Nc2c(C)c(-c3ccn(C)c(=O)c3)nn2-c2ccccc2)[C@H](c2ccc(Cl)c(F)c2)C1` (relative stereo) [Example 303, 1-(trans-4-(4-chloro-3-fluorophenyl)-1-(2-methoxyethyl)pyrrolidin-3-yl)-3-(4-methyl-3-(1-methyl-2-oxo-1,2-dihydropyridin-4-yl)-1-phenyl-1H-pyrazol-5-yl)urea] and `COCCN1C[C@@H](NC(=O)Nc2c(C)c(-c3ccn(C)c(=O)c3)nn2-c2ccccc2)[C@H](c2ccc(F)c(Cl)c2)C1` (relative stereo) [Example 304, 1-(trans-4-(3-chloro-4-fluorophenyl)-1-(2-methoxyethyl)pyrrolidin-3-yl)-3-(4-methyl-3-(1-methyl-2-oxo-1,2-dihydropyridin-4-yl)-1-phenyl-1H-pyrazol-5-yl)urea] cannot be ordered by IC50: < 100 nM for the first, < 100 nM for the second.

First: COCCN1C[C@@H](NC(=O)Nc2c(C)c(-c3cnn(C)c3)nn2-c2ccccc2)[C@H](c2cnn(C)c2)C1 (relative stereo) [Example 333, 1-(1′,4-dimethyl-1-phenyl-1H,1'H-[3,4′-bipyrazol]-5-yl)-3-(trans-1-(2-methoxyethyl)-4-(1-methyl-1H-pyrazol-4-yl)pyrrolidin-3-yl)urea]
Second: COCCN1C[C@@H](NC(=O)Nc2c(C)c(C)nn2-c2ccccc2)[C@H](c2cncc(Cl)c2)C1 (relative stereo) [Example 343, 1-(trans-4-(5-chloropyridin-3-yl)-1-(2-methoxyethyl)pyrrolidin-3-yl)-3-(3,4-dimethyl-1-phenyl-1H-pyrazol-5-yl)urea]
The IC50 of the first is higher: 100 to 1000 nM for the first, < 100 nM for the second. The second is the more potent here.

`CCOc1nn(-c2ccccc2)c(NC(=O)N[C@@H]2CN(CCOC)C[C@H]2c2cccc(C(F)(F)F)c2)c1C` (relative stereo) [Example 335, 1-(3-ethoxy-4-methyl-1-phenyl-1H-pyrazol-5-yl)-3-(trans-1-(2-methoxyethyl)-4-(3-(trifluoromethyl)phenyl)pyrrolidin-3-yl)urea] and `COCCN1C[C@@H](NC(=O)Nc2c(C)c(-c3ccccc3)nn2-c2ccccc2)[C@H](c2cncc(F)c2)C1` (relative stereo) [Example 344, 1-(trans-4-(5-fluoropyridin-3-yl)-1-(2-methoxyethyl)pyrrolidin-3-yl)-3-(4-methyl-1,3-diphenyl-1H-pyrazol-5-yl)urea] cannot be ordered by IC50: < 100 nM for the first, < 100 nM for the second.

`COCCN1C[C@@H](NC(=O)Nc2c(Br)c(-c3ccccc3)nn2-c2ccccc2)[C@H](c2cncc(F)c2)C1` (relative stereo) [Example 435, 1-(4-bromo-1,3-diphenyl-1H-pyrazol-5-yl)-3-(trans-4-(5-fluoropyridin-3-yl)-1-(2-methoxyethyl)pyrrolidin-3-yl)urea] and `COCCN1C[C@@H](NC(=O)Nc2c(Cl)c(-c3ccccc3)nn2-c2ccccc2)[C@H](c2cncc(F)c2)C1` (relative stereo) [Example 436, 1-(4-chloro-1,3-diphenyl-1H-pyrazol-5-yl)-3-(trans-4-(5-fluoropyridin-3-yl)-1-(2-methoxyethyl)pyrrolidin-3-yl)urea] cannot be ordered by IC50: < 100 nM for the first, < 100 nM for the second.

With `COCCN1C[C@@H](NC(=O)Nc2c(C)c(=O)[nH]n2-c2ccccc2)[C@H](c2ccc(Cl)c(F)c2)C1` (relative stereo) [Example 609, 1-((trans)-4-(4-chloro-3-fluorophenyl)-1-(2-methoxyethyl)pyrrolidin-3-yl)-3-(4-methyl-5-oxo-2-phenyl-2,5-dihydro-1H-pyrazol-3-yl)urea] the IC50 was < 100 nM.
